Results on 1 compound are retold here after patent US4863748A, “Dietary products and uses comprising methylsulfonylmethane” (priority 1986, dated 1989).

Experiment [1] concerns rheumatoid arthritis and other intense pain-producing disease. Kind of experiment: Intravenous administration in acute intense pain-producing disease. Format: in vivo, human. From the text: In U.S. Pat. No. 4,296,130, I teach that methylsulfonylmethane is so inert and non-toxic that aqueous solutions thereof can be used as a blood diluent. In healthy humans or other animals having adequately high methylsulfonylmethane blood levels, methylsulfonylmethane is in fact "inert" in the sense the term is used in that patent. However, in acutely ill patiets, dramatic beneficial benefits are often obtained by the intravenous administration of large doses of methylsulfonylmethane. For example, rheumatoid arthritic patients suffering from a flair-up of the disease which produces intense pain or crippling swelling of the joints or both achieve prompt relief, even those patients who obtain only minimal or delayed benefits from oral ingestion of methylsulfonylmethane.
Apparently, when a patient is in an acute stage of intense pain-producing disease, such as rheumatoid arthritis, osteoporosis, degenerative disc syndrome, an autoimmune disease or metathesized carcinoma, which produces intense pain, the relief from pain from oral ingestion of methylsulfonylmethane is sometimes too subtle or takes too long for the patient to obtain reasonably prompt subjective benefits therefrom.
Therefore, in one aspect this invention relates to a method for rapidly ameliorating at least the pain associated with an intense pain-producing disease by the intravenous administration of methylsulfonylmethane in an amount effective to ameliorate the pain.
The amount of methylsulfonylmethane intravenously administered can vary substantially because of its lack of toxicity and adverse side effects. Individual doses can vary from about 0.01 to 2 gm/kg, preferably from about 0.1 to 1 gm/kg, on a body weight basis, the usual dosage range is about 0.25 to 0.75 gm/kg, preferably about 0.5 gm/kg.
When large amounts are administered, e.g., in the order of 1 g/kg of body weight or more, i.e., infusion of 5% to 10% solution of methylsulfonylmethane in water, physiological saline or 5% dextrose is preferred. The rate of administration is preferably no greater than about 1 gm/kg/hr, although infusion rates as high as 2 gm/kg/hr are tolerated by patients, except for light-headedness of the type experienced by some blood donors is experienced by some patients at this rate.
For patients suffering from a serious chronic disease, e.g., an acute stage of rheumatoid arthritis or other acute inflammatory conditions or a patient in extreme pain, administer 1 gm/kg of methylsulfonylmethane i.v. as a 14% by wt. solution in sterile 5% dextrose solution, at the rate of 1 gm/kg/hr. Within 2-4 hours, significant subjective relief from the symptoms of the disease or condition is experienced by the patient, with the relief lasting for from 7 to 21 days.

Experiment [2] concerns bilateral fibrinous pleuritis. Kind of experiment: Bilateral fibrinous pleuritis in a breeding mare (Examples 4 and 24). Format: in vivo, horse (mare). The protocol: A valuable breeding mare, treated for a respiratory infection developed bilateral fibrinous pleuritis, easily heard with auscultation of the chest. After six weeks therapy with a combination of conventional antibiotics and anti-inflammatory drugs, there was little if any improvement. Conventional therapy was terminated. Methylsulfonylmethane was added to the diet of this refractory case (24 g, twice daily, over a period of 5 days). This was the only special treatment given. […] Auscultation of the chest was negative.

The test system of another experiment is nail growth. Kind of experiment: Nail growth in dogs (Example 6). To be noted: 5% in drinking water, 45 days. Format: in vivo, dog (female labradors). The text has this:
Rate of nail growth is an indication of the overall health of an animal. To determine the effect of methylsulfonylmethane on nail growth, two litter mate female labradors, age 8.5 months, were maintained in side by side straw bedded cages. Before any testing, the front paws of each dog were embedded in partially set plaster of paris, allowing the animals to exert full body weight, thereby obtaining good clear impressions of paw pads and nail length.
Each dog was fed Purina dog chow and water ad lib for 45 days. One of the dogs, (Animal A) had no ration change and the other (Animal B) was supplied only with water containing 5% of methylsulfonylmethane dissolved therein. After 45 days, plaster impressions of the front paws of each dog were again taken. Once the plaster had fully hardened the pre- and post-testing castings of each animal were compared. The straw bedding protected both animals from normal nail wear. On visual examination, the nails of Animal B, the animal receiving methylsulfonylmethane in its water, were obviously longer. Upon comparing the castings it was seen that Animal B had nails that averaged about 1/8 inch greater length than those of Animal A.

A further experiment relates to coat. Kind of experiment: Coat quality of dogs (Example 7). Format: in vivo, dog (female labradors). The following applies: 5% in drinking water, 45 days; three individuals. The text has this: The coats of animals A and B of Example 6 were examined by three individuals.
The subject of a further experiment is leg cramps. Kind of experiment: Leg cramps in marathon runner (Example 27). The following applies: 15 mg/kg/day, at least 7 days. Format: in vivo, human. The protocol: Before a marathon race, administer methylsulfonylmethane to the runner for at least 7 days at the rate of 15 mg/kg/day.
For experiment [3], the system named is Giardia lamblia. Kind of experiment: In vitro inhibition of Giardia lamblia (Example 28(b)). Format: cell-based. The protocol: However, at 20 mg/ml concentration, it was strongly inhibitory and concentrations above 40 mg/ml promptly killed the organism.
Experiment [4] deals with Giardia lamblia. Kind of experiment: Treatment of Giardia infection in a subject (Example 28(b)). Format: in vivo, human. The following applies: 500 mg orally three times/24 hours × 14 days. The procedure: One subject with confirmed Giardia, apparently contacted from contaminated water in a primitive area, was given 500 mg of methylsulfonylmethane orally three times/24 hours×14 days. By the eighth day they were asymptomatic.

In experiment [5] the test system is pain in the mid-back region. Kind of experiment: Acute pain, comparison with codeine, urinary calculi, subject three (Example 32). Format: in vivo, human. The following applies: 1.5 g in warm water, oral. The protocol:
Methylsulfonylmethane was compared with codeine for the control of pain in subject three, a person who awakened in the early morning with excruciating pain in the mid-back region, so intense it was difficult to pin-point a specific region. […] Analgesic requirements were 1/2 grain codeine with aspirin every two hours. […] The intense pain returned. The subject was given 1.5 g of methylsulfonylmethane dissolved in 1/2 glass of warm water. At 0.5 hours after taking the methylsulfonylmethane, the pain had essentially disappeared. Methylsulfonylmethane (1.5 g/day) was continued until the afternoon of the third day, when X-ray confirmed that the calculi yet obstructed the ureter. Subject was switched again to codeine with aspirin (1/2 grain×2 hours). […] Methylsulfonylmethane was again administered (1.5 g×4 hours). On day 5 the calculi passed. Recovery was uneventful, requiring neither codeine, methylsulfonylmethane,nor a urinary tract antimicrobial.

The subject of a further experiment is mammary tumors. The following applies: abdominal DMBA; in drinking water; tumors in control animals; cited from earlier work.
Where [6] appears, read: 1 gm/kg i.v., 14% solution in 5% dextrose, 1 gm/kg/hr (Example 34).
[7] abbreviates: 24 g twice daily, 5 days (Example 4).

A value given as a limit tells only on which side of the number the result lay.

Consider `CS(C)(=O)=O` [methylsulfonylmethane], for which, in [1] (setting [6]), the duration of relief was in the range of 7 to 21 days and the “time to significant subjective relief from symptoms” value lay within 2 to 4 h. For the same compound, in experiment [1] (i.v.), the “time to relief from pain” value was “within hours and often within minutes”. The “relief in flare-up of rheumatoid arthritis” value in [1] (i.v., large doses) is listed as “prompt relief”. The “duration of remission maintained with oral ingestion after one i.v. administration” value in experiment [1] (one i.v., then oral) is listed as “weeks or months”. Further, the response of pleuritis entry in experiment [2] (2×12 gm/day in diet, five days (Example 24)) is “responded favorably (normal breathing, negative ausculation of the chest)”. Besides, in [2] (setting [7]), the “auscultation of the chest” value is “negative”, the “breathing at fifth day” value is on record as “returned to normal” and the “pain at fifth day” value is on record as “no longer demonstrated pain”. Further, the “state over the next two years” value in [2] (followed two years after treatment (Example 4)) was “normal and healthy”. Moreover, in the experiment with nail growth, the “greater average nail length vs Animal A” value is “about 1/8”. The “coat quality (thickness and shiny appearance)” value in the experiment on coat is on record as “superior”. The “likelihood of severe leg cramp during or after race” value in the experiment on leg cramps was “significantly reduced”. Further, in the experiment with Giardia lamblia [3], the “concentration promptly killing the organism” value was “above 40 mg/ml”, the “concentration with no significant inhibition” value was at most 1 mg/mL and the strongly inhibitory concentration was determined as 20 mg/mL. Besides, the “organism in two stool specimens” value with Giardia lamblia [4] (collected one week apart) is given as “free of the organism”. Further, the “symptoms by the eighth day” value with Giardia lamblia [4] (one subject) was “asymptomatic”. Moreover, in [5], the “time after which the pain had essentially disappeared” value was 0.5 h. In addition, the development of tumors result with mammary tumors was “did not develop tumors”.
